One test has as its target T1, hA2B receptors (Homo sapiens, UniProt P29275).
T1 construct: purchased Receptor Biology, Inc. (USA); host or cells: HEK293
T1 sequence (P29275 1-332): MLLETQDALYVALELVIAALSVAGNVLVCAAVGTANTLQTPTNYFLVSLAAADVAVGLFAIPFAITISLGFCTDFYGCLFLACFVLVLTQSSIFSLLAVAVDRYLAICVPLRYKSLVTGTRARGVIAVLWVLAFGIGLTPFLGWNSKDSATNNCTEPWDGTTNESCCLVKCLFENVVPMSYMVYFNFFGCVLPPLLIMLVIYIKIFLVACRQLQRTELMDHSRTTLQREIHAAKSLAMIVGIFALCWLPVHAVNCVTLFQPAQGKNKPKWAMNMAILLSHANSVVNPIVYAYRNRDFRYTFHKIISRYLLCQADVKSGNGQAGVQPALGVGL
Briefly: Adenosine 2B receptor subtype competition radioligand binding. Conditions: membranes from hA2B receptors transfected to HEK293 cells, [3H]DPCPX as radioligand, 30 min at 25° C.; read-out: IC50 A2B. Here is the method: Adenosine 2B Receptor Subtype Competition Radioligand Binding
Human membranes from recombinant A2B receptors were purchased from Receptor Biology, Inc.(USA).
Competition assays were carried out by incubation of membranes from hA2B receptors transfected to HEK293 cells, [^3H]DPCPX as radioligand, buffer (50 mM Tris-HCl (pH 6.5), 10 mM MgCl2, 1 mM EDTA, 0.1 mM benzamidine, 2 units/ml adenosine deaminase), and unlabelled ligand in a total volume of 0.1 ml for 30 min at 25° C. NECA was used to determinate non-specific binding. Filter over Schleicher&Schuell GF/52 filters (pre-soaked 0.5% polyethylenyimine) in a Brandel cell harvester. Unbound radioligand was removed with 4×2 ml ice-cold 50 mM Tris-Hcl (pH 6.5).
T2 sequence (P29274 whole entry): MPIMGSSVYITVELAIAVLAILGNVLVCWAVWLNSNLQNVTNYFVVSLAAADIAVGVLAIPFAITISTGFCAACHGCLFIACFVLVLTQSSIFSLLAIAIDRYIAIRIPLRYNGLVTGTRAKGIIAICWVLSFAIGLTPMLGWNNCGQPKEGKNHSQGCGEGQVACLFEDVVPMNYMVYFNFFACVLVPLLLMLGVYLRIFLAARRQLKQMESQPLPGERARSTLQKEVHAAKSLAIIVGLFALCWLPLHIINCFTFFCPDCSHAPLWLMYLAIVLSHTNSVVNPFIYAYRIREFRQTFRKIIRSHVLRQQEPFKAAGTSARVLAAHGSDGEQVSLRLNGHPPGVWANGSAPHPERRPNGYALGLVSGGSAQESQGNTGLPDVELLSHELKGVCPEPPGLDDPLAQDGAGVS
`COc1ccc(NS(=O)(=O)c2ccc(-c3cc4c([nH]3)c(=O)n(C)c(=O)n4C)cc2)cn1` [Example 36, 4-(1,3-Dimethyl-2,4dioxo-2,3,4,5-tetrahydro-1H-pyrrolo[3,2-d]pyrimidin-6-yl)-N-(6-methoxypyridin-3-yl)benzenesulphonamide]: the IC50 (in general, the point on the concentration scale where inhibition reaches its midpoint) worked out at 18 nM.
As for `Cn1c(=O)c2[nH]c(-c3ccc(S(=O)(=O)N4CCN(Cc5ccc(Cl)s5)CC4)cc3)cc2n(C)c1=O` [Example 18, 6-{4-[4-(5-Chlorothiophen-2-ylmethyl)piperazine-1-sulphonyl]phenyl}-1,3-dimethyl-1,5-dihydropyrrolo[3,2-d]pyrimidine-2,4-dione], the IC50 was 4 nM.
As to `Cn1c(=O)c2[nH]c(-c3ccc(S(=O)(=O)N4CCN(Cc5cccc(F)c5)CC4)cc3)cc2n(C)c1=O` [Example 3, 6-{4-[4-(3-Fluorobenzyl)piperazine-1-sulphonyl]phenyl}-1,3-dimethyl-1,5-dihydropyrrolo[3,2-d]pyrimidine-2,4-dione], the IC50 was 7 nM.
On the same count and under the same terms, under `Cn1c(=O)c2[nH]c(-c3ccc(S(=O)(=O)N4CCN(Cc5ccccc5)CC4)cc3)cc2n(C)c1=O` [Example 1, 6-[4-(4-Benzylpiperazine-1-sulphonyl)phenyl]-1,3-dimethyl-1,5-dihydropyrrolo[3,2-d]pyrimidine-2,4-dione] stands 16 nM; under `CCCn1c(=O)c2[nH]c(-c3ccc(S(=O)(=O)N4CCN(c5ccccn5)CC4)cc3)cc2n(C)c1=O` [Example 126, 1-Methyl-3-propyl-6-[4-(4-pyridin-2-yipiperazine-1-sulphonyl)phenyl]-1,5-dihydropyrrolo[3,2-d]pyrimidin-2,4-dione], 12 nM.
For `CCCn1c(=O)c2[nH]c(-c3ccc(S(=O)(=O)N4CCN(Cc5ccc6c(c5)OCO6)CC4)cc3)cc2n(C)c1=O` [Example 118, 6[4-(4-Benzol[1,3]dioxol-5-ylmethylpiperazine-1-sulphonyl)phenyl]-1-methyl-3-propyl-1,5-dihydropyrrolo[3,2-d]pyrimidine-2,4-dione], the IC50 was found to be 6 nM.
With `COc1cccc(OCCNS(=O)(=O)c2ccc(-c3cc4c([nH]3)c(=O)n(C)c(=O)n4C)cc2)n1` [Example 173, 4-(1,3-Dimethyl-2,4-dioxo-2,3,4,5-tetrahydro-1H-pyrrolo[3,2-d]pyrimidin-6-yl)-N-[2-(6-methoxypyridin-2-yloxy)ethyl]benzenesulfonamide], the IC50 was 5 nM.
For `Cn1c(=O)c2[nH]c(-c3ccc(S(=O)(=O)Nc4ccccn4)cc3)cc2n(C)c1=O` [Example 38, 4-(1,3-Dimethyl-2,4-dioxo-2,3,4,5-tetrahydro-1H-pyrrolo[3,2-d]pyrimidin-6-yl)-N-pyridin-2-ylbenzenesulphonamide], the IC50 was determined as 12 nM.
As to `CCCn1c(=O)c2[nH]c(-c3ccc(S(=O)(=O)N4CCN(Cc5ccc(F)cc5)CC4)cc3)cc2n(C)c1=O` [Example 107, 6-{4-[4-(4-Fluorobenzyl)piperazine-1-sulphonyl]phenyl}-1-methyl-3-propyl-1,5-dihydropyrrolo[3,2-d]pyrimidine-2,4-dione], the IC50 was found to be 9 nM.
With `CCCn1c(=O)c2[nH]c(-c3ccc(S(=O)(=O)NCCc4ccccn4)cc3)cc2n(C)c1=O` [Example 132, 4-(1-Methyl-2,4-dioxo-3-propyl-2,3,4,5-tetrahydro-1H-pyrrolo[3,2-d]pyrimidin-6-yl)-N-(2-pyridin-2-ylethyl)benzenesulphonamide], the IC50 turned out to be 17 nM.
With `Cn1c(=O)c2[nH]c(-c3ccc(S(=O)(=O)NCCOc4ccccn4)cc3)cc2n(C)c1=O` [Example 172, 4-(1,3-Dimethyl-2,4-dioxo-2,3,4,5-tetrahydro-1H-pyrrolo[3,2-d]pyrimidin-6-yl)-N-[2-(pyridin-2-yloxy)ethyl]benzenesulfonamide], the IC50 came to 17 nM.
In the case of `Cn1c(=O)c2[nH]c(-c3ccc(S(=O)(=O)NCCc4ccccn4)cc3)cc2n(C)c1=O` [Example 37, 4-(1,3-Dimethyl-2,4-dioxo-2,3,4,5-tetrahydro-1H-pyrrolo[3,2-d]pyrimidin-6-yl)-N-(2-pyridin-2-ylethyl)benzenesulphonamide], the IC50 worked out at 14 nM.

Another test addresses T2, hA2A receptors (Homo sapiens, UniProt P29274).
T2 construct: purchased Receptor Biology, Inc. (USA); host or cells: HEK293
As to the kind of experiment: Adenosine 2A receptor subtype competition radioligand binding. The note with it: membranes from hA2A receptors transfected to HEK293 cells, [3H]ZM241385 as radioligand, 90 min at 25° C.; read-out: IC50 A2A. Here is the method:
Adenosine 2A Receptor Subtype Competition Radioligand Binding
Human membranes from recombinant A2A receptors were purchased from Receptor Biology, Inc. (USA).
Competition assays were carried out by incubation of membranes from hA2A receptors transfected to HEK293 cells, [^3H]ZM241385 as radioligand, buffer (50 mM Tris-HCl (pH 7.4), 10 mM MgCl2, 1 mM EDTA, 2 units/ml adenosine deaminase), and unlabelled ligand in a total volume of 0.2 ml for 90 min at 25° C. NECA was used to determinate non-specific binding. Filter over Schleicher&Schuell GF/52 filters (pre-soaked 0.5% polyethylenyimine) in a Brandel cell harvester. Unbound radioligand was removed with 3×3 ml ice-cold 50 mM Tris-Hcl 50 (pH 7.4), 0.9% NaCl.
`Cn1c(=O)c2[nH]c(-c3ccc(S(=O)(=O)N4CCN(Cc5ccc(Cl)s5)CC4)cc3)cc2n(C)c1=O` [Example 18, 6-{4-[4-(5-Chlorothiophen-2-ylmethyl)piperazine-1-sulphonyl]phenyl}-1,3-dimethyl-1,5-dihydropyrrolo[3,2-d]pyrimidine-2,4-dione]: the IC50 came to 85 nM.
Take `CCCn1c(=O)c2[nH]c(-c3ccc(S(=O)(=O)NC4CCN(Cc5ccccc5)CC4)cc3)cc2n(CCC)c1=O` [Example 97, N-(1-Benzylperidin-4-yl)-4-(2,4-dioxo-1,3-dipropyl-2,3,4,5-tetrahydro-1H-pyrrolo[3,2-d]pyrimidin-6-yl)benzenesulphonamide]: the half-maximal inhibitory concentration (IC50) was 60 nM.
In the case of `Cn1c(=O)c2[nH]c(-c3ccc(S(=O)(=O)Nc4ccccn4)cc3)cc2n(C)c1=O` [Example 38, 4-(1,3-Dimethyl-2,4-dioxo-2,3,4,5-tetrahydro-1H-pyrrolo[3,2-d]pyrimidin-6-yl)-N-pyridin-2-ylbenzenesulphonamide], the IC50 was determined as 75 nM.
As to `CCn1c(=O)c2[nH]c(-c3ccc(S(=O)(=O)NC4CCN(Cc5ccc(F)cc5)CC4)cc3)cc2n(CC)c1=O` [Example 69, 4-(1,3-Diethyl-2,4-dioxo-2,3,4,5-tetrahydro-1H-pyrrolo[3,2-d]pyrimidin-6-yl)-N-[1-(4-fluorobenzyl)piperidin-4yl]benzenesulphonamide], the half-inhibitory concentration (IC50) worked out at 84 nM.
For `CCn1c(=O)c2[nH]c(-c3ccc(S(=O)(=O)N4CCN(Cc5ccc(Cl)s5)CC4)cc3)cc2n(CC)c1=O` [Example 59, 6-{4-[4-(5-Chlorothiophen-2-ylmethyl)piparazine-1-sulphonyl]phenyl}-1,3-diethyl-1,5-dihydropyrrolo[3,2-d]pyrimidine-2,4dione], the IC50 worked out at 28 nM.
